In ChEMBL document CHEMBL5303573, “Mapping human microbiome drug metabolism by gut bacteria and their genes” (Nature, 2019):

How the values were obtained:
[1] = The drug is tested on Bacteroides ovatus strain: ATCC8483 for biotransformation. The drug concentrations were measured before and after a 12-h incubation by liquid-chromatography-coupled mass spectrometry (LC–MS); details: 2 µM
[2] = The drug is tested on Clostridium asparagiforme strain: DSM15981 for biotransformation. The drug concentrations were measured before and after a 12-h incubation by liquid-chromatography-coupled mass spectrometry (LC–MS); assay type: ADME; set-up: dose 2 uM, timepoint 0 vs 12 hours; details: enterocloster asparagiformis, 2 µM
[3] = The drug is tested on Ruminococcus gnavus strain: ATCC29149 for biotransformation. The drug concentrations were measured before and after a 12-h incubation by liquid-chromatography-coupled mass spectrometry (LC–MS); details: mediterraneibacter gnavus, 2 µM
[4] = The drug is tested on Bifidobacterium ruminantium strain: fecal isolate for biotransformation. The drug concentrations were measured before and after a 12-h incubation by liquid-chromatography-coupled mass spectrometry (LC–MS); details: 2 µM
[5] = The drug is tested on Clostridium sp. strain: fecal isolate for biotransformation. The drug concentrations were measured before and after a 12-h incubation by liquid-chromatography-coupled mass spectrometry (LC–MS); details: 2 µM
[6] = The drug is tested on Dorea formicigenerans strain: ATCC27755 for biotransformation. The drug concentrations were measured before and after a 12-h incubation by liquid-chromatography-coupled mass spectrometry (LC–MS); details: 2 µM
[7] = The drug is tested on Enterococcus faecalis strain: V583 for biotransformation. The drug concentrations were measured before and after a 12-h incubation by liquid-chromatography-coupled mass spectrometry (LC–MS); details: 2 µM
[8] = The drug is tested on Bacteroides dorei strain: DSM17855 for biotransformation. The drug concentrations were measured before and after a 12-h incubation by liquid-chromatography-coupled mass spectrometry (LC–MS); details: phocaeicola dorei, 2 µM
[9] = The drug is tested on Ruminococcus torques strain: ATCC27756 for biotransformation. The drug concentrations were measured before and after a 12-h incubation by liquid-chromatography-coupled mass spectrometry (LC–MS); assay type: ADME; set-up: dose 2 uM, timepoint 0 vs 12 hours; details: 2 µM
[10] = The drug is tested on Anaerotruncus colihominis strain: DSM17241 for biotransformation. The drug concentrations were measured before and after a 12-h incubation by liquid-chromatography-coupled mass spectrometry (LC–MS); details: 2 µM
[11] = bifidobacterium adolescentis, 12 h, 2 µM
Description: The drug is tested on Bifidobacterium adolescentis strain: ATCC 15703 for biotransformation. The drug concentrations were measured before and after a 12-h incubation by liquid-chromatography-coupled mass spectrometry (LC–MS)

[12] = The drug is tested on Escherichia coli strain: BW25113 for biotransformation. The drug concentrations were measured before and after a 12-h incubation by liquid-chromatography-coupled mass spectrometry (LC–MS); details: 2 µM
[13] = The drug is tested on Bacteroides pectinophilus strain: ATCC43243 for biotransformation. The drug concentrations were measured before and after a 12-h incubation by liquid-chromatography-coupled mass spectrometry (LC–MS); details: 2 µM
[14] = The drug is tested on Enterobacter cancerogenus strain: ATCC35316 for biotransformation. The drug concentrations were measured before and after a 12-h incubation by liquid-chromatography-coupled mass spectrometry (LC–MS); details: 2 µM
[15] = bacteroides eggerthii, 12 h, 2 µM
Description: The drug is tested on Bacteroides eggerthii strain: DSM20697 for biotransformation. The drug concentrations were measured before and after a 12-h incubation by liquid-chromatography-coupled mass spectrometry (LC–MS)

[16] = The drug is tested on Clostridium scindens strain: ATCC35704 for biotransformation. The drug concentrations were measured before and after a 12-h incubation by liquid-chromatography-coupled mass spectrometry (LC–MS); details: 2 µM
[17] = The drug is tested on Providencia rettgeri strain: DSM1131 for biotransformation. The drug concentrations were measured before and after a 12-h incubation by liquid-chromatography-coupled mass spectrometry (LC–MS); assay type: ADME; set-up: dose 2 uM, timepoint 0 vs 12 hours; details: 2 µM
[18] = The drug is tested on Subdoligranulum variabile strain: DSM15176 for biotransformation. The drug concentrations were measured before and after a 12-h incubation by liquid-chromatography-coupled mass spectrometry (LC–MS); details: 2 µM
[19] = The drug is tested on Bacteroides uniformis strain: ATCC8492 for biotransformation. The drug concentrations were measured before and after a 12-h incubation by liquid-chromatography-coupled mass spectrometry (LC–MS); details: 2 µM

Structure (SMILES)	Bacterial Biotransformation [1]	Bacterial Biotransformation [2]	Bacterial Biotransformation [3]	Bacterial Biotransformation [4]	Bacterial Biotransformation [5]	Bacterial Biotransformation [6]	Bacterial Biotransformation [7]	Bacterial Biotransformation [8]	Bacterial Biotransformation [9]	Bacterial Biotransformation [10]	Bacterial Biotransformation [11]	Bacterial Biotransformation [12]	Bacterial Biotransformation [13]	Bacterial Biotransformation [14]	Bacterial Biotransformation [15]	Bacterial Biotransformation [16]	Bacterial Biotransformation [17]	Bacterial Biotransformation [18]	Bacterial Biotransformation [19]
CCCC1O[C@@H]2C[C@H]3[C@@H]4CCC5=CC(=O)C=C[C@]5(C)[C@H]4[C@@H](O)C[C@]3(C)[C@]2(C(=O)CO)O1 (stereo partly specified) [BUDESONIDE]	Compound NOT metabolized	Compound metabolized	Compound NOT metabolized	Compound NOT metabolized	Compound metabolized	Compound NOT metabolized	Compound NOT metabolized	Compound metabolized	Compound NOT metabolized	Compound NOT metabolized	Compound NOT metabolized	Compound NOT metabolized	Compound NOT metabolized	Compound NOT metabolized	Compound metabolized	Compound NOT metabolized			
c1ccc([C@H]2CN3CCSC3=N2)cc1 [LEVAMISOLE]	Compound metabolized	Compound metabolized	Compound NOT metabolized	Compound NOT metabolized	Compound metabolized	Compound metabolized	Compound NOT metabolized	Compound metabolized	Compound NOT metabolized	Compound metabolized	Compound NOT metabolized	Compound metabolized			Compound metabolized	Compound metabolized	Compound NOT metabolized	Compound NOT metabolized	Compound metabolized
CC(=O)O[C@]1(C(C)=O)CC[C@H]2[C@@H]3C=C(Cl)C4=CC(=O)[C@@H]5C[C@@H]5[C@]4(C)[C@H]3CC[C@@]21C [CYPROTERONE ACETATE]	Compound metabolized	Compound NOT metabolized	Compound NOT metabolized	Compound NOT metabolized	Compound metabolized	Compound NOT metabolized	Compound NOT metabolized	Compound metabolized	Compound NOT metabolized	Compound metabolized	Compound NOT metabolized	Compound metabolized	Compound metabolized		Compound metabolized	Compound metabolized	Compound NOT metabolized	Compound NOT metabolized	Compound metabolized
CN/C(=N/CCSCc1nc[nH]c1C)NC#N [CIMETIDINE]		Compound NOT metabolized	Compound NOT metabolized	Compound NOT metabolized		Compound NOT metabolized	Compound NOT metabolized	Compound metabolized	Compound NOT metabolized	Compound NOT metabolized	Compound NOT metabolized	Compound NOT metabolized	Compound NOT metabolized	Compound NOT metabolized	Compound NOT metabolized		Compound NOT metabolized		Compound metabolized
COc1cc2c(c(OC)c1OC)-c1ccc(OC)c(=O)cc1[C@@H](NC(C)=O)CC2 [COLCHICINE]	Compound NOT metabolized	Compound NOT metabolized		Compound NOT metabolized	Compound metabolized	Compound NOT metabolized	Compound NOT metabolized	Compound metabolized	Compound NOT metabolized	Compound NOT metabolized	Compound NOT metabolized				Compound metabolized	Compound NOT metabolized	Compound NOT metabolized	Compound NOT metabolized	Compound metabolized
CN(C)CCc1c[nH]c2ccc(CS(=O)(=O)N3CCCC3)cc12 [ALMOTRIPTAN]	Compound NOT metabolized	Compound NOT metabolized	Compound NOT metabolized		Compound NOT metabolized	Compound NOT metabolized	Compound NOT metabolized		Compound NOT metabolized	Compound NOT metabolized	Compound NOT metabolized		Compound NOT metabolized	Compound NOT metabolized	Compound NOT metabolized	Compound NOT metabolized	Compound NOT metabolized	Compound NOT metabolized	Compound NOT metabolized
CC(C)NCC(O)COc1ccc(CC(N)=O)cc1 (stereo unspecified) [ATENOLOL]		Compound NOT metabolized	Compound NOT metabolized	Compound NOT metabolized	Compound NOT metabolized	Compound NOT metabolized	Compound NOT metabolized		Compound NOT metabolized	Compound NOT metabolized	Compound NOT metabolized	Compound NOT metabolized	Compound NOT metabolized	Compound NOT metabolized	Compound NOT metabolized	Compound NOT metabolized			
